Assay results published in ChEMBL document CHEMBL1129369, “Forskolin carbamates: binding and activation studies with type I adenylyl cyclase” (J Med Chem, 1996).

molecular target: T1, Adenylate cyclase type 1 (Homo sapiens, UniProt Q08828); experiment: Ability to activate the conversion of [32P] ATP to [32P]-cyclic AMP mediated by adenylate cyclase 1; format: functional; conditions: not given
Target sequence in this assay (Q08828 whole entry): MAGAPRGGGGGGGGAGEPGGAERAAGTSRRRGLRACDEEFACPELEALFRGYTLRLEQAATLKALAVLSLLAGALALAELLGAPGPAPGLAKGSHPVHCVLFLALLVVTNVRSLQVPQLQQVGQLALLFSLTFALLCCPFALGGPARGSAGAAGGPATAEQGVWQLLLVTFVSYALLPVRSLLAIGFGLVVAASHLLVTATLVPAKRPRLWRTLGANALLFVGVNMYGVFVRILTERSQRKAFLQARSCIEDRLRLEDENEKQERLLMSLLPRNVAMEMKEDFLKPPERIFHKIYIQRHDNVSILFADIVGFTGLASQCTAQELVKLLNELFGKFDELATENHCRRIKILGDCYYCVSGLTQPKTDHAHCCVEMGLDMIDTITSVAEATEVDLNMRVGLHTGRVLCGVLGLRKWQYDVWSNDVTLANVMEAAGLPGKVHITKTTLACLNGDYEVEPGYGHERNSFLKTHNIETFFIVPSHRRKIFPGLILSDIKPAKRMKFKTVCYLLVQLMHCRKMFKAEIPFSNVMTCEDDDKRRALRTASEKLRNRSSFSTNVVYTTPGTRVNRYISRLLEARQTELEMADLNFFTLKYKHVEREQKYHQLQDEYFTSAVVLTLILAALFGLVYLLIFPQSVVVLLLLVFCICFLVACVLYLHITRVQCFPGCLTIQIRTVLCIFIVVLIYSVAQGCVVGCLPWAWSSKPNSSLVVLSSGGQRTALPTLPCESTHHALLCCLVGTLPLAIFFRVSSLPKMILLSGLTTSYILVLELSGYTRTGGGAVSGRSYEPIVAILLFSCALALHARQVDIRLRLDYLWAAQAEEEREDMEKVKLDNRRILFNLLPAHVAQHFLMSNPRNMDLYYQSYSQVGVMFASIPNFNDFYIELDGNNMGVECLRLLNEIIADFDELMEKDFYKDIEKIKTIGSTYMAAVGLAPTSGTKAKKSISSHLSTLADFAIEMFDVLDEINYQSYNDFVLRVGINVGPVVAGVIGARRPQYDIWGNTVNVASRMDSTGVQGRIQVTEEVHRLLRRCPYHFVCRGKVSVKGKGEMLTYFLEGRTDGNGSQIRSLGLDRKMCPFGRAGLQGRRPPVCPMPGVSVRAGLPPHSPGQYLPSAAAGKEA

SMILES | EC50 [nM]
C=C[C@@]1(C)CC(=O)[C@]2(O)[C@@]3(C)[C@@H](O)CCC(C)(C)[C@@H]3[C@H](OC(=O)NCCc3ccc(O)cc3)[C@H](O)[C@@]2(C)O1 | < 2000
C=C[C@@]1(C)CC(=O)[C@]2(O)[C@@]3(C)[C@@H](O)CCC(C)(C)[C@@H]3[C@H](O)[C@H](OC(=O)NCCC(=O)OCC)[C@@]2(C)O1 | > 2000
C=C[C@@]1(C)CC(=O)[C@]2(O)[C@@]3(C)[C@@H](O)CCC(C)(C)[C@@H]3[C@H](O)[C@H](OC(=O)NCCc3ccccn3)[C@@]2(C)O1 | < 2000

The remaining lines, values ahead:

EC50 [nM] | SMILES
> 2000 | C=C[C@@]1(C)CC(=O)[C@]2(O)[C@@]3(C)[C@@H](O)CCC(C)(C)[C@@H]3[C@H](OC(=O)NCCC(=O)OCC)[C@H](O)[C@@]2(C)O1
< 2000 | C=C[C@@]1(C)CC(=O)[C@]2(O)[C@@]3(C)[C@@H](O)CCC(C)(C)[C@@H]3[C@H](OC(=O)NCCc3ccccn3)[C@H](OC(C)=O)[C@@]2(C)O1
> 2000 | C=C[C@@]1(C)CC(=O)[C@]2(O)[C@@]3(C)[C@@H](O)CCC(C)(C)[C@@H]3[C@H](OC(=O)NCCC)[C@H](OC(C)=O)[C@@]2(C)O1

molecular target: T1, Adenylate cyclase type 1; experiment: Conversion of [32P] ATP to [32P]-cyclic AMP mediated by adenylate cyclase 1; format: functional; conditions: read-out: EC50
Target sequence in this assay (Q08828 whole entry): as above

SMILES | EC50 [nM]
C=C[C@@]1(C)CC(=O)[C@]2(O)[C@@]3(C)[C@@H](O)CCC(C)(C)[C@@H]3[C@H](OC(=O)NCCc3ccc(O)cc3)[C@H](O)[C@@]2(C)O1 | 630
C=C[C@@]1(C)CC(=O)[C@]2(O)[C@@]3(C)[C@@H](O)CCC(C)(C)[C@@H]3[C@H](O)[C@H](OC(=O)NCCC(=O)OCC)[C@@]2(C)O1 | 3600
C=C[C@@]1(C)CC(=O)[C@]2(O)[C@@]3(C)[C@@H](O)CCC(C)(C)[C@@H]3[C@H](O)[C@H](OC(=O)NCCc3ccccn3)[C@@]2(C)O1 | 1100

Next, values leading:

EC50 [nM] | SMILES
6500 | C=C[C@@]1(C)CC(=O)[C@]2(O)[C@@]3(C)[C@@H](O)CCC(C)(C)[C@@H]3[C@H](OC(=O)NCCC(=O)OCC)[C@H](O)[C@@]2(C)O1
600 | C=C[C@@]1(C)CC(=O)[C@]2(O)[C@@]3(C)[C@@H](O)CCC(C)(C)[C@@H]3[C@H](OC(=O)NCCc3ccccn3)[C@H](OC(C)=O)[C@@]2(C)O1
4300 | C=C[C@@]1(C)CC(=O)[C@]2(O)[C@@]3(C)[C@@H](O)CCC(C)(C)[C@@H]3[C@H](OC(=O)NCCC)[C@H](OC(C)=O)[C@@]2(C)O1

molecular target: T1, Adenylate cyclase type 1; experiment: (§1) Inhibition of [125 I]6-IHPP-forskolin binding to adenylate cyclase 1; conditions: not given
Target sequence in this assay (Q08828 whole entry): as above

SMILES | IC50 [nM]
C=C[C@@]1(C)CC(=O)[C@]2(O)[C@@]3(C)[C@@H](O)CCC(C)(C)[C@@H]3[C@H](OC(=O)NCCc3ccc(O)cc3)[C@H](O)[C@@]2(C)O1 | 236
C=C[C@@]1(C)CC(=O)[C@]2(O)[C@@]3(C)[C@@H](O)CCC(C)(C)[C@@H]3[C@H](O)[C@H](OC(=O)NCCC(=O)OCC)[C@@]2(C)O1 | 185
C=C[C@@]1(C)CC(=O)[C@]2(O)[C@@]3(C)[C@@H](O)CCC(C)(C)[C@@H]3[C@H](O)[C@H](OC(=O)NCCc3ccccn3)[C@@]2(C)O1 | 143

Now from value to compound:

IC50 [nM] | SMILES
171 | C=C[C@@]1(C)CC(=O)[C@]2(O)[C@@]3(C)[C@@H](O)CCC(C)(C)[C@@H]3[C@H](OC(=O)NCCC(=O)OCC)[C@H](O)[C@@]2(C)O1
21 | C=C[C@@]1(C)CC(=O)[C@]2(O)[C@@]3(C)[C@@H](O)CCC(C)(C)[C@@H]3[C@H](OC(=O)NCCc3ccccn3)[C@H](OC(C)=O)[C@@]2(C)O1
76 | C=C[C@@]1(C)CC(=O)[C@]2(O)[C@@]3(C)[C@@H](O)CCC(C)(C)[C@@H]3[C@H](OC(=O)NCCC)[C@H](OC(C)=O)[C@@]2(C)O1

molecular target: T1, Adenylate cyclase type 1; experiment: as §1; conditions: not given
Target sequence in this assay (Q08828 whole entry): as above

SMILES | IC50 [nM]
C=C[C@@]1(C)CC(=O)[C@]2(O)[C@@]3(C)[C@@H](O)CCC(C)(C)[C@@H]3[C@H](OC(=O)NCCc3ccc(O)cc3)[C@H](O)[C@@]2(C)O1 | > 150
C=C[C@@]1(C)CC(=O)[C@]2(O)[C@@]3(C)[C@@H](O)CCC(C)(C)[C@@H]3[C@H](O)[C@H](OC(=O)NCCC(=O)OCC)[C@@]2(C)O1 | > 150
C=C[C@@]1(C)CC(=O)[C@]2(O)[C@@]3(C)[C@@H](O)CCC(C)(C)[C@@H]3[C@H](O)[C@H](OC(=O)NCCc3ccccn3)[C@@]2(C)O1 | < 150

Continued, values first:

IC50 [nM] | SMILES
> 150 | C=C[C@@]1(C)CC(=O)[C@]2(O)[C@@]3(C)[C@@H](O)CCC(C)(C)[C@@H]3[C@H](OC(=O)NCCC(=O)OCC)[C@H](O)[C@@]2(C)O1
< 150 | C=C[C@@]1(C)CC(=O)[C@]2(O)[C@@]3(C)[C@@H](O)CCC(C)(C)[C@@H]3[C@H](OC(=O)NCCc3ccccn3)[C@H](OC(C)=O)[C@@]2(C)O1
< 150 | C=C[C@@]1(C)CC(=O)[C@]2(O)[C@@]3(C)[C@@H](O)CCC(C)(C)[C@@H]3[C@H](OC(=O)NCCC)[C@H](OC(C)=O)[C@@]2(C)O1

molecular target: T1, Adenylate cyclase type 1; experiment: Maximum stimulation activity measured with 100 uM forskolin mediated by adenylate cyclase 1; format: functional; conditions: not given
Target sequence in this assay (Q08828 whole entry, looked up): as the sequence (Q08828 whole entry) above

SMILES | Activity [%]
C=C[C@@]1(C)CC(=O)[C@]2(O)[C@@]3(C)[C@@H](O)CCC(C)(C)[C@@H]3[C@H](OC(=O)NCCc3ccc(O)cc3)[C@H](O)[C@@]2(C)O1 | 86
C=C[C@@]1(C)CC(=O)[C@]2(O)[C@@]3(C)[C@@H](O)CCC(C)(C)[C@@H]3[C@H](O)[C@H](OC(=O)NCCC(=O)OCC)[C@@]2(C)O1 | 127
C=C[C@@]1(C)CC(=O)[C@]2(O)[C@@]3(C)[C@@H](O)CCC(C)(C)[C@@H]3[C@H](O)[C@H](OC(=O)NCCc3ccccn3)[C@@]2(C)O1 | 91

Other lines, results leading:

Activity [%] | SMILES
75 | C=C[C@@]1(C)CC(=O)[C@]2(O)[C@@]3(C)[C@@H](O)CCC(C)(C)[C@@H]3[C@H](OC(=O)NCCC(=O)OCC)[C@H](O)[C@@]2(C)O1
97 | C=C[C@@]1(C)CC(=O)[C@]2(O)[C@@]3(C)[C@@H](O)CCC(C)(C)[C@@H]3[C@H](OC(=O)NCCc3ccccn3)[C@H](OC(C)=O)[C@@]2(C)O1
80 | C=C[C@@]1(C)CC(=O)[C@]2(O)[C@@]3(C)[C@@H](O)CCC(C)(C)[C@@H]3[C@H](OC(=O)NCCC)[C@H](OC(C)=O)[C@@]2(C)O1
